The values below come from ChEMBL document CHEMBL1201862, “PubChem BioAssay data set” (2004).

What all share (experiment): NCI anticancer screen, dose series, 48 h
Assay [1] has as its system NCI-H23.
Assay [2] has as its system KM12.
In assay [3] the test system is SW-620.
The subject of assay [4] is RXF 393.
The test system of assay [5] is HL-60.
Assay [6] concerns SR.
In assay [7] the test system is NCI/ADR-RES.
Assay [8] relates to PC-3.
Assay [9] has as its system MCF7.
The test system of assay [10] is CAKI-1.
Assay [11] has as its system OVCAR-4.
Assay [12] deals with ACHN.
For assay [13], the system named is MDA-MB-435.
The subject of assay [14] is BT-549.
Assay [15] deals with K562.
Assay [16] relates to SK-MEL-2.
The test system of assay [17] is 786-0.
The test system of assay [18] is SF-268.
Assay [19] deals with SK-MEL-5.
Assay [20] relates to HOP-62.

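Tested at 5 concentrations; 48 h exposure; 96-well plates; endpoints linearly interpolated, else capped at highest concentration. GI50 = concentration required for 50% inhibition of growth.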 The source made the active and inactive calls. Rule as the data show it: active = GI50 up to about 1.1 µM and inactive = higher.

Turning to `Cn1c(=O)c2[nH]c(CCC(=O)O)nc2n(C)c1=O`, the GI50 in assay [1], in assay [2], in assay [3], in [4], in assay [5] and in assay [6] was > 100 µM (inactive) each time. The GI50 in [7], in assay [8], in assay [9], in [10], in assay [11] and in [12] was > 100 µM (inactive) throughout. Besides, the GI50 in assay [13], in assay [14], in assay [15], in assay [16], in [17] and in assay [18] was > 100 µM (inactive) throughout. Besides, the GI50 in [19] and in [20] was > 100 µM (inactive) each time.

For `COC(=O)c1ccc(C)cc1C1CN=NC12Cc1cc(C)ccc1C2=O` (stereo not given), the GI50 in [1] is 18.1 µM (inactive); in assay [2] it was 6.14 µM (inactive); in [3], 5.35 µM (inactive); in assay [4], 13.8 µM (inactive); in assay [5], 3.58 µM (inactive); in [6], 4.41 µM (inactive). The GI50 in assay [7] was 6.64 µM (inactive); in [8] it was 11.5 µM (inactive); in [9] it was 3.61 µM (inactive); in assay [10], 11.8 µM (inactive); in [11], 26.2 µM (inactive); in assay [12] it was 28.1 µM (inactive). Also, the GI50 in assay [13] is 2.18 µM (inactive); in assay [14], 15.3 µM (inactive); in assay [15], 4.84 µM (inactive); in assay [16], 8.22 µM (inactive); in assay [17] it was 21.3 µM (inactive); in assay [18], 25.6 µM (inactive). For the same compound, the GI50 in assay [19] is 8.28 µM (inactive); in assay [20], 20.1 µM (inactive).

As to `Cc1cn2c(/C=N/NC(=N)N)c(-c3cccc([N+](=O)[O-])c3)nc2s1`, the GI50 in [1] was 2.39 µM (inactive); in [2], 0.647 µM (active); in [3] it was 0.661 µM (active); in assay [4], 1.15 µM (inactive); in [5], 1.92 µM (inactive); in [6], 1.77 µM (inactive). Moreover, the GI50 in assay [7] is 28.4 µM (inactive); in assay [8], 1.74 µM (inactive); in assay [9] it was 0.625 µM (active); in assay [10] it was 2.42 µM (inactive); in assay [11] it was 0.153 µM (active); in assay [12], 1.67 µM (inactive). In addition, the GI50 in [13] is 1.82 µM (inactive); in assay [14], 1.75 µM (inactive); in assay [15], 0.215 µM (active); in assay [16], 1.96 µM (inactive); in [17] it was 1.47 µM (inactive); in assay [18], 1.08 µM (active). In addition, the GI50 was 1.63 µM (inactive) in assay [19] and 1.38 µM (inactive) in assay [20].

Regarding `CN1C(=O)N/C(=C\c2ccc(S(=O)(=O)N/N=C/c3ccccc3)cc2)C1=O`, the GI50 in assay [1] was 23.3 µM (inactive); in [2] it was 15.7 µM (inactive); in assay [3], 91.6 µM (inactive); in assay [4], 21.2 µM (inactive); in [5] it was 4.93 µM (inactive); in assay [6], 10.4 µM (inactive). Further, the GI50 in [7] was 27.6 µM (inactive); in assay [8], 22.1 µM (inactive); in assay [9], 19.1 µM (inactive); in assay [10], 21.2 µM (inactive); in assay [11], 18.9 µM (inactive); in [12], 24.7 µM (inactive). The GI50 in assay [13] was 37 µM (inactive); in assay [14], 27.7 µM (inactive); in assay [15], 30 µM (inactive); in [16], 15 µM (inactive); in [17], 34.8 µM (inactive); in assay [18], 26.8 µM (inactive). The GI50 was 13.6 µM (inactive) in assay [19] and 64.9 µM (inactive) in assay [20].

Take `Cc1ccc(-c2n[nH]c(=O)[nH]2)cc1`: the GI50 in assay [1], in [2], in assay [3], in assay [4], in [5] and in assay [6] was > 100 µM (inactive) throughout. Moreover, the GI50 in assay [7], in assay [8], in [9], in [10], in [11] and in assay [12] was > 100 µM (inactive) in each case. Also, the GI50 in assay [13], in assay [14], in assay [15], in assay [16], in assay [17] and in [18] was > 100 µM (inactive) throughout. The GI50 in assay [19] and in assay [20] was > 100 µM (inactive) each time.

For `C[C@H]1CCC/C=C/[C@@H]2C[C@H](OC(=O)CN(C)C)C[C@H]2[C@H](O)/C=C/C(=O)O1`, the GI50 is 0.129 µM (active) in assay [1]; 0.0522 µM (active) in [2]; 0.156 µM (active) in assay [3]; 0.0383 µM (active) in assay [4]; 0.22 µM (active) in assay [5]; 0.153 µM (active) in assay [6]. Besides, the GI50 in assay [7] was 0.0139 µM (active); in assay [8], 0.141 µM (active); in assay [9] it was 0.187 µM (active); in [10], 0.161 µM (active); in assay [11], 0.154 µM (active); in assay [12], 0.2 µM (active). Besides, the GI50 in assay [13] was 0.157 µM (active); in assay [14] it was 0.232 µM (active); in [15], 0.241 µM (active); in assay [16], 0.153 µM (active); in assay [17], 0.0462 µM (active); in assay [18], 0.2 µM (active). For the same compound, the GI50 was 0.0395 µM (active) in assay [19] and 0.21 µM (active) in assay [20].

In the case of `COc1ccc(C(SC2C(O)C(CO)OC2n2ccc(N)nc2=O)(c2ccccc2)c2ccc(OC)cc2)cc1` (stereo not given), the GI50 was 22.2 µM (inactive) in [1]; 19.7 µM (inactive) in assay [2]; 23.6 µM (inactive) in assay [3]; 17.5 µM (inactive) in assay [4]; 26.9 µM (inactive) in assay [5]; 12.4 µM (inactive) in assay [6]. Also, the GI50 in assay [7] was 21 µM (inactive); in [8] it was 16.4 µM (inactive); in [9] it was 17.3 µM (inactive); in assay [10], 31.3 µM (inactive); in [11], 24.8 µM (inactive); in assay [12], 31.3 µM (inactive). In addition, the GI50 in assay [13] is 10.9 µM (inactive); in assay [14], 18.2 µM (inactive); in assay [15], 26.4 µM (inactive); in assay [16], 16.8 µM (inactive); in assay [17], 16.8 µM (inactive); in assay [18], 17.7 µM (inactive). For the same compound, the values for the GI50 in assay [19] and in [20] were 12.9 µM (inactive) and 17.8 µM (inactive), respectively.

For the compound `C/C(=N/NC(=S)N(Cc1ccccn1)Cc1ccccn1)c1cnccn1`, the GI50 is 0.731 µM (active) in [1]; 0.427 µM (active) in [2]; 0.288 µM (active) in assay [3]; 2.52 µM (inactive) in assay [4]; 0.126 µM (active) in assay [5]; 0.578 µM (active) in assay [6]. The GI50 was 0.0242 µM (active) in assay [7]; 2.49 µM (inactive) in assay [8]; 0.565 µM (active) in assay [9]; 0.429 µM (active) in assay [10]; 0.288 µM (active) in [11]; 0.306 µM (active) in assay [12]. The GI50 in assay [13] was 0.897 µM (active); in [14] it was 0.646 µM (active); in assay [15] it was 0.519 µM (active); in assay [16], 3.41 µM (inactive); in assay [17] it was 0.393 µM (active); in assay [18] it was 0.418 µM (active). Also, the results for the GI50 in assay [19] and in assay [20] were 0.432 µM (active) and 0.594 µM (active), respectively.

As to `CC1(C)CC(=O)C2=C(C1)C(c1ccccc1Cl)C1C(=O)CC(C)(C)CC1(O)O2` (stereo not given), the GI50 is > 100 µM (inactive) in [1]; > 100 µM (inactive) in assay [2]; 43.7 µM (inactive) in assay [3]; > 100 µM (inactive) in assay [4]; 4.91 µM (inactive) in assay [5]; 28.1 µM (inactive) in assay [6]. Also, the GI50 was > 89.1 µM (inactive) in assay [7]; > 100 µM (inactive) in assay [8]; 37.3 µM (inactive) in [9]; 98.2 µM (inactive) in assay [10]; > 100 µM (inactive) in assay [11]; > 100 µM (inactive) in assay [12]. For the same compound, the GI50 in [13] was 25.9 µM (inactive); in assay [14], > 100 µM (inactive); in assay [15] it was 15.3 µM (inactive); in assay [16], > 100 µM (inactive); in [17], > 100 µM (inactive); in assay [18] it was > 100 µM (inactive). Also, the GI50 in [19] was 64.1 µM (inactive); in assay [20], > 100 µM (inactive).
